Measured values published in patent US20260176320A1, “MODULATORS OF G-PROTEIN COUPLED RECEPTORS” (priority 2018, published 2026).
Like-named read-outs stand apart in the source and are kept apart here. Numbered stars: 1 amine (or outer) side, 2 acyl side, 3 side chain; on linkers, the order of the positions; unused ones are H or OH. Square brackets hold non-standard residues; d marks the D form. Side chains are listed from the residue outwards. Peptide text beside a SMILES is read from it. * marks the point of attachment. γGlu = O=C(O)[C@H](CCC(=O)[*:2])N[*:1]; X2 = O=C(CSCC(=O)*)NCCN1C(=O)CSC1=O; Palmitoyl = CCCCCCCCCCCCCCCC(=O)*; Aib = CC(C)(N)C(=O)O

Columns and labels:
Type in all cases: cell-based
GIP-R = target: T1, GIP-R (Homo sapiens, UniProt P48546); test: HitHunter cAMP assay (GIP-R); settings: cAMP; for Emax: read-out: (Emax) GIP-R
T1 sequence (P48546 22-466): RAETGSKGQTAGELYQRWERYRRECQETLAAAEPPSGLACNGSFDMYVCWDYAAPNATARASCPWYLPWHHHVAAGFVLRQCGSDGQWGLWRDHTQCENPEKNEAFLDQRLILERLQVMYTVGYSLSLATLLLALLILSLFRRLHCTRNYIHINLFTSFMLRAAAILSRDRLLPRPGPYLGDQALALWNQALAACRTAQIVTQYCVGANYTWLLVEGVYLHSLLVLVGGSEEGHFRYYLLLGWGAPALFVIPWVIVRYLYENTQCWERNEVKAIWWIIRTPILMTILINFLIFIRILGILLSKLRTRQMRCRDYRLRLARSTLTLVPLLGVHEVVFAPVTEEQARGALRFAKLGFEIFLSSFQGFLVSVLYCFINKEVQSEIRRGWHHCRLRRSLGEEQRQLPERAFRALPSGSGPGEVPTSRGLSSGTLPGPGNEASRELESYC
In short: (§1)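 Suspension cells (10,000/well) in HBSS with 10 mM HEPES, 625 μM IBMX, 0.2% BSA exposed to 22-point 2-fold agonist series in duplicate for 30 min at room temperature. cAMP measured by antibody immunocompetition with overnight development, luminescence read-out.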

GLP-1R [1] = target: T2, GLP-1R (Homo sapiens, UniProt P43220); test: PathHunter β-arrestin assay
Description: The effects of the chemical entities described herein on β-arrestin signaling and associated downstream processes (e.g., those delineated above) can be assessed using conventional methods, e.g., PathHunter β-arrestin Assay for determining β-arresting coupling (see Examples section). […] It has been shown that b-arrestin coupling is a key strep in receptor internalization and subsequent de-sensitization and attenuation of signaling.
5,000 cells were seeded in appropriate cell culture media per well in a low volume 384-well tissue culture plate. The assay plate was incubated with cells overnight at 37° C. and 5% CO2. The media was removed, and 5 μL of appropriate cell culture media containing 0.2% BSA was added. Agonist serial dilutions in a separate 384 well dilution plate in a 22-point series of 2× dilutions of agonist in DMSO were performed as follows. 80 μL of the highest concentration of Agonist/DMSO was added to well No. 1. 40 μL was removed from well No. 1, and added to well No. 2, followed by gentle mixing. […] This process was repeated until well No. 22. Additional serial dilutions for additional agonists were set up in a similar manner. 100 nL of each 2× agonist serial dilution was added in duplicate to the designated agonist rows of the assay plate using the Labcyte ECHO. Assay plate was incubated for 90 minutes at 37° C. and 5% CO2. A stock of Working Detection Solution in a separate 15 ml polypropylene tube was prepared by mixing 19 parts of Cell Assay Buffer, 5 parts of Substrate Reagent 1, 1 part Substrate Reagent 2. […] Plates were spun down briefly. Assay plate was incubated for 3 hour at room temperature in the dark for the immunocompetition reaction to occur. Samples were read on Tecan i-control plate reader using luminescence mode with 100 ms integration time. Data analysis was performed using GraphPad Prism.

GLP-1R [2] = target: T2, GLP-1R; test: HitHunter cAMP assay (GLP-1R); settings: cAMP; for Emax: read-out: (Emax) GLP-1R
In short: as §1

[3] = Table 3, read-out: EC50 GIP-R/nM
[4] = Table 3A, read-out: EC50 GIP-R/nM
[5] = PathHunter β-arrestin assay, read-out: β-arrestin activity EC50
[6] = Table 3, read-out: EC50 GLP-1R/nM
[7] = Table 3A, read-out: EC50 GLP-1R/nM

T2 sequence (P43220 24-463): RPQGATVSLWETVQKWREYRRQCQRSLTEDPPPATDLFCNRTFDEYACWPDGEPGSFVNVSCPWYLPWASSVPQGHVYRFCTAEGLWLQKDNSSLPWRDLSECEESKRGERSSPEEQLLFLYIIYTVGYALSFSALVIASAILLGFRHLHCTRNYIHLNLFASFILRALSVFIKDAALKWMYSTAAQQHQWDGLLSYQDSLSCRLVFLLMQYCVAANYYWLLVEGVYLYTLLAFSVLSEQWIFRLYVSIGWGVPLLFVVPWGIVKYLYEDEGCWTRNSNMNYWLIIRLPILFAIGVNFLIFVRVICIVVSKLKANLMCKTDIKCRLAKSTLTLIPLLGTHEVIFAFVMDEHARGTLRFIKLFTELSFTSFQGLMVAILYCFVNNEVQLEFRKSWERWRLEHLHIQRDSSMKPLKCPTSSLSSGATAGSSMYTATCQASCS

Structure (SMILES)	Emax (GIP-R; Table 3)	EC50 (GIP-R; [3])	Emax (GIP-R; Table 3A)	EC50 (GIP-R; [4])	EC50 (GLP-1R [1]; [5])	Emax (GLP-1R [2]; Table 3)	EC50 (GLP-1R [2]; [6])	Emax (GLP-1R [2]; Table 3A)	EC50 (GLP-1R [2]; [7])	EC50 (GIP-R; EC50 GIP-R/nM, Table 3)	EC50 (GIP-R; EC50 GIP-R/nM, Table 3A)	EC50 (GLP-1R [1])	EC50 (GLP-1R [2]; EC50 GLP-1R/nM, Table 3)	EC50 (GLP-1R [2]; EC50 GLP-1R/nM, Table 3A)	Emax at 1 µM (GIP-R; read-out: (Emax) GIP-R at 1 μM, Table 3, at 1 μM)	EC50 (GIP-R; read-out: EC50 GIP-R/nM, Table 3A)
CCCCCCCCCCCCCCCC(=O)N[C@@H](CCC(=O)NCCCC[C@H](NC(=O)[C@H](CO)NC(=O)[C@@H]1CCCN1C(=O)[C@@H]1CCCN1C(=O)[C@@H]1CCCN1C(=O)[C@H](C)NC(=O)CNC(=O)[C@H](CO)NC(=O)[C@H](CO)NC(=O)[C@@H]1CCCN1C(=O)CNC(=O)CNC(=O)[C@H](C)NC(=O)[C@H](CC(C)C)NC(=O)[C@H](CC(C)C)NC(=O)[C@H](Cc1c[nH]c2ccccc12)NC(=O)[C@H](CC(N)=O)NC(=O)[C@@H](NC(=O)[C@H](Cc1ccccc1)NC(=O)[C@H](CCC(=O)O)NC(=O)C(C)(C)NC(=O)[C@H](C)NC(=O)[C@H](C)NC(=O)[C@H](CCC(N)=O)NC(=O)[C@H](CCCCN)NC(=O)[C@H](CC(=O)O)NC(=O)[C@H](CCSC)NC(=O)[C@H](CCC(N)=O)NC(=O)[C@@H](NC(=O)[C@H](CO)NC(=O)[C@H](Cc1ccc(O)cc1)NC(=O)[C@H](CC(=O)O)NC(=O)[C@H](CO)NC(=O)[C@@H](NC(=O)[C@H](Cc1ccccc1)NC(=O)[C@@H](NC(=O)CNC(=O)[C@H](CCC(=O)O)NC(=O)CSCC(=O)NCCN1C(=O)CSC1=O)[C@@H](C)O)[C@@H](C)O)[C@@H](C)CC)C(C)C)C(N)=O)C(=O)O [Compound 72] (X2-EGTFTSDYSIQMDKQAA[Aib]EFVNWLLAGGPSSGAPPPSK([γGlu-Palmitoyl])-NH2)	87%	0.1 to 1 nM	87%	0.1 to 1 nM	> 1000 nM	105%	0.1 to 1 nM	105%	0.1 to 1 nM	–	–	–	–	–	–	–
CCCCCCCCCCCCCCCC(=O)N[C@@H](CCC(=O)NCCCC[C@H](NC(=O)[C@H](CO)NC(=O)[C@@H]1CCCN1C(=O)[C@@H]1CCCN1C(=O)[C@@H]1CCCN1C(=O)[C@H](C)NC(=O)CNC(=O)[C@H](CO)NC(=O)[C@H](CO)NC(=O)[C@@H]1CCCN1C(=O)CNC(=O)CNC(=O)[C@H](C)NC(=O)[C@H](CC(C)C)NC(=O)[C@H](CC(C)C)NC(=O)[C@H](Cc1c[nH]c2ccccc12)NC(=O)[C@H](CC(N)=O)NC(=O)[C@@H](NC(=O)[C@H](Cc1ccccc1)NC(=O)[C@H](CCC(=O)O)NC(=O)C(C)(C)NC(=O)[C@H](C)NC(=O)[C@H](C)NC(=O)[C@H](CCC(N)=O)NC(=O)[C@H](CCCCN)NC(=O)[C@H](CC(=O)O)NC(=O)[C@H](CC(C)C)NC(=O)[C@H](Cc1ccc(O)cc1)NC(=O)[C@@H](NC(=O)[C@H](CO)NC(=O)[C@H](Cc1ccc(O)cc1)NC(=O)[C@H](CC(=O)O)NC(=O)[C@H](CO)NC(=O)[C@@H](NC(=O)[C@H](Cc1ccccc1)NC(=O)[C@@H](NC(=O)CNC(=O)[C@H](CCC(=O)O)NC(=O)CSCC(=O)NCCN1CCSCC1=O)[C@@H](C)O)[C@@H](C)O)[C@@H](C)CC)C(C)C)C(N)=O)C(=O)O [Compound 36]	51 to 75%	0.1 to 10 nM	51 to 75%	0.1 to 10 nM	> 1000 nM	108%	< 1 nM	108%	< 1 nM	–	–	–	–	–	–	–
CCCCCCCCCCCCCCCC(=O)N[C@@H](CCC(=O)NCCCC[C@H](NC(=O)[C@H](CO)NC(=O)[C@@H]1CCCN1C(=O)[C@@H]1CCCN1C(=O)[C@@H]1CCCN1C(=O)[C@H](C)NC(=O)CNC(=O)[C@H](CO)NC(=O)[C@H](CO)NC(=O)[C@@H]1CCCN1C(=O)CNC(=O)CNC(=O)[C@H](C)NC(=O)[C@H](CC(C)C)NC(=O)[C@H](CC(C)C)NC(=O)[C@H](Cc1c[nH]c2ccccc12)NC(=O)[C@H](CC(N)=O)NC(=O)[C@@H](NC(=O)[C@H](Cc1ccccc1)NC(=O)[C@H](CCC(=O)O)NC(=O)C(C)(C)NC(=O)[C@H](C)NC(=O)[C@H](C)NC(=O)[C@H](CCC(N)=O)NC(=O)[C@H](CCCCN)NC(=O)[C@H](CC(=O)O)NC(=O)[C@H](CC(C)C)NC(=O)[C@H](Cc1ccc(O)cc1)NC(=O)[C@@H](NC(=O)[C@H](CO)NC(=O)[C@H](Cc1ccc(O)cc1)NC(=O)[C@H](CC(=O)O)NC(=O)[C@H](CO)NC(=O)[C@@H](NC(=O)[C@H](Cc1ccccc1)NC(=O)[C@@H](NC(=O)CNC(=O)[C@H](CCC(=O)O)NC(=O)CSCC(=O)NCCN1CCN(C)C(=O)C1=O)[C@@H](C)O)[C@@H](C)O)[C@@H](C)CC)C(C)C)C(N)=O)C(=O)O [Compound 30]	59%	–	59%	–	–	97%	–	97%	–	1 to 10 nM	1 to 10 nM	> 1000 nM	0.1 to 1 nM	0.1 to 1 nM	–	–
CC[C@H](C)[C@H](NC(=O)[C@H](CO)NC(=O)[C@H](Cc1ccc(O)cc1)NC(=O)[C@H](CC(=O)O)NC(=O)[C@H](CO)NC(=O)[C@@H](NC(=O)[C@H](Cc1ccccc1)NC(=O)[C@@H](NC(=O)CNC(=O)[C@H](CCC(=O)O)NC(=O)C12CC(C(=O)NCCN3C(=O)CSC3=O)(C1)C2)[C@@H](C)O)[C@@H](C)O)C(=O)N[C@@H](Cc1ccc(O)cc1)C(=O)N[C@@H](CC(C)C)C(=O)N[C@@H](CC(=O)O)C(=O)N[C@@H](CCCCN)C(=O)N[C@@H](CCC(N)=O)C(=O)N[C@@H](C)C(=O)N[C@@H](C)C(=O)NC(C)(C)C(=O)N[C@@H](CCC(=O)O)C(=O)N[C@@H](Cc1ccccc1)C(=O)N[C@H](C(=O)N[C@@H](CC(N)=O)C(=O)N[C@@H](Cc1c[nH]c2ccccc12)C(=O)N[C@@H](CC(C)C)C(=O)N[C@@H](CC(C)C)C(=O)N[C@@H](C)C(=O)NCC(=O)NCC(=O)N1CCC[C@H]1C(=O)N[C@@H](CO)C(=O)N[C@@H](CO)C(=O)NCC(=O)N[C@@H](C)C(=O)N1CCC[C@H]1C(=O)N1CCC[C@H]1C(=O)N1CCC[C@H]1C(=O)N[C@@H](CO)C(=O)N[C@@H](CCCCN)C(N)=O)C(C)C [Compound 179]	–	–	–	–	–	103%	–	103%	–	> 1000 nM	–	10 to 1000 nM	0.1 to 1 nM	0.1 to 1 nM	2%	> 1000 nM
CCCCCCCCCCCCCCCC(=O)N[C@@H](CCC(=O)NCCCC[C@H](NC(=O)[C@H](CO)NC(=O)[C@@H]1CCCN1C(=O)[C@@H]1CCCN1C(=O)[C@@H]1CCCN1C(=O)[C@H](C)NC(=O)CNC(=O)[C@H](CO)NC(=O)[C@H](CO)NC(=O)[C@@H]1CCCN1C(=O)CNC(=O)CNC(=O)[C@H](C)NC(=O)[C@H](CC(C)C)NC(=O)[C@H](CC(C)C)NC(=O)[C@H](Cc1c[nH]c2ccccc12)NC(=O)[C@H](CC(N)=O)NC(=O)[C@@H](NC(=O)[C@H](Cc1ccccc1)NC(=O)[C@H](CCC(=O)O)NC(=O)C(C)(C)NC(=O)[C@H](C)NC(=O)[C@H](C)NC(=O)[C@H](CCC(N)=O)NC(=O)[C@H](CCCCN)NC(=O)[C@H](CC(=O)O)NC(=O)[C@H](CC(C)C)NC(=O)[C@H](Cc1ccc(O)cc1)NC(=O)[C@@H](NC(=O)[C@H](CO)NC(=O)[C@H](Cc1ccc(O)cc1)NC(=O)[C@H](CC(=O)O)NC(=O)[C@H](CO)NC(=O)[C@@H](NC(=O)[C@H](Cc1ccccc1)NC(=O)[C@@H](NC(=O)CNC(=O)[C@H](CCC(=O)O)NC(=O)CSCC(=O)NCCn1[nH]c(=O)ccc1=O)[C@@H](C)O)[C@@H](C)O)[C@@H](C)CC)C(C)C)C(N)=O)C(=O)O [Compound 241]	–	–	46%	–	–	–	–	100%	–	–	10 to 100 nM	> 1000 nM	–	1 to 10 nM	–	–
